Data as given in US8795632B2, “Disease animal model for chronic pain” (Astellas Pharma Inc., priority 2008, dated 2014).

Tested on: dopamine, norepinephrine, serotonin, DOPAC, MHPG and 5-HIAA in the spinal cord, thalamus and prefrontal cortex
Assay: Amounts of dopamine, norepinephrine, serotonin, DOPAC, MHPG and 5-HIAA in spinal cord, thalamus and prefrontal cortex after reserpine single administration (HPLC-ECD)
Assay type: in vivo, rat
Conditions: reserpine 3 mg/kg single s.c.
Procedure: Male Sprague-Dawley rats (7 weeks old, Japan SLC, Hamamatsu, Japan) were used as the animal.
A total of 72 rats were divided into 12 test schedules (collection of samples before the administration, 2, 4, 8 and 24 hours after the administration and 2, 3, 5, 7, 10, 14 and 21 days thereafter) and further divided each of them into a vehicle (0.5% acetic acid aqueous solution) administration group and a reserpine 3 mg/kg administration group, to 3 rats per group. As shown in Example 5, the vehicle or 3 mg/kg of reserpine was administered subcutaneously only once to each rat, and the brain and spinal cord were quickly collected after 2, 4, 8 or 24 hours or 2, 3, 5, 7, 10, 14 or 21 days of the administration. The thalamus and prefrontal cortex were separated from the brain on an ice-cold dish. Regarding the sampling before administration, samples were collected before beginning of the administration of the vehicle or reserpine. The collected samples were quickly frozen and stored at −80° C. until their use in the measurements. On the day of the measurement, tissues of respective samples were subjected to wet weight measurement, homogenized in 0.2 M perchloric acid/0.1 mM EDTA-2Na solution using an ultrasonic homogenizer. After centrifugation at 15,000 g and at 4° C. for 15 minutes, the supernatant was adjusted to pH 3.5 using sodium acetate and filtered using a filter. Amounts of dopamine, norepinephrine, serotonin, DOPAC, MHPG and 5-HIAA in these samples were measured using a high performance liquid chromatography (column: SC-50DS 3.0, 150 mm, Eicom Co., Ltd., Kyoto, Japan, mobile phase composition: 0.1 M sodium acetate buffer, 0.1 M citrate buffer, pH 3.5, 5 mg/l EDTA-2Na, 200 mg/l sodium octane sulfonic acid, 16% methanol) and an electrochemical detector (ECD-300, Eicom Co., Ltd., Kyoto, Japan). The measurement was carried out under conditions of flow rate 0.5 ml/min, applied voltage 750 mV and 25° C. Amounts of dopamine, norepinephrine, serotonin, DOPAC, MHPG and 5-HIAA in the samples were quantified by comparing sample peak areas of respective standards measured on the same day of the sample measurement.
All of the measured values were expressed as average value±standard error in the graphs, and unit of the measured values was set to ng/g tissue wet weight. Statistical difference of the measured values between the reserpine administration group and the vehicle administration group in each test schedule was carried out by the two-way analysis of variance and the Bonferroni method. Probability value (P) of less than 5% was judged as statistically significant (P<0.05 was expressed as * in the graphs).

[1] = after 2, 4, 8 and 24 hours and 2, 3, 5, 7, 10, 14 and 21 days

## COC(=O)[C@H]1[C@H]2C[C@@H]3c4[nH]c5cc(OC)ccc5c4CCN3C[C@H]2C[C@@H](OC(=O)c2cc(OC)c(OC)c(OC)c2)[C@@H]1OC [reserpine]
After 2, 3, 5, 7, 10 and 14 days
  amount of DOPAC in the prefrontal cortex: significantly reduced
After 2, 4, 8 and 24 hours
  amount of 5-HIAA in the thalamus: significantly increased
  amount of DOPAC in the spinal cord: significantly increased
[1]
  amount of dopamine in the spinal cord: significantly reduced
  amount of dopamine in the thalamus: significantly reduced
  amount of norepinephrine in the prefrontal cortex: significantly reduced
  amount of norepinephrine in the spinal cord: significantly reduced
  amount of norepinephrine in the thalamus: significantly reduced
  amount of serotonin in the spinal cord: significantly reduced
After 2, 4, 8 and 24 hours and 2, 3, 5, 7, 10 and 14 days
  amount of dopamine in the prefrontal cortex: significantly reduced
After 2, 4, 8 and 24 hours and 2, 3, 5, 7 and 10 days
  amount of serotonin in the prefrontal cortex: significantly reduced
After 4, 8, 24 hours and 2 days
  amount of 5-HIAA in the spinal cord: significantly increased
After 8 and 24 hours and 3, 5, 7 and 10 days
  amount of serotonin in the thalamus: significantly reduced
After 4 hours and 7 days
  amount of MHPG in the prefrontal cortex: significantly reduced
  amount of MHPG in the spinal cord: significantly reduced
After 8 hours and 2, 3, 5, 7, 10, 14 and 21 days
  amount of 5-HIAA in the prefrontal cortex: significantly reduced
After 2 days and later
  amount of DOPAC in the spinal cord: did not significantly change
All time points
  amount of DOPAC in the thalamus: did not significantly change
  amount of MHPG in the thalamus: did not significantly change
In and after 2 days
  amount of 5-HIAA in the thalamus: no significant difference
In and after 3 days
  amount of 5-HIAA in the spinal cord: did not significantly change
Within 24 hours after the administration
  amount of DOPAC in the prefrontal cortex: did not significantly change
